Test results: publication PMC7450057, “Enhancing intracellular accumulation and target engagement of PROTACs with reversible covalent chemistry” (Nature Communications, 2020)
Where “and” joins values, the source holds several entries; their conditions need not be identical. Identical values can stand only once.

Columns and labels:
[1] = biological target: T1, full-length BTK protein (Homo sapiens, UniProt Q06187); test: BTK binding assay (Kd, Eurofins DiscoverX); details: for Kd: full-length BTK, duplicates
T1 construct: Kd was measured using the full-length BTK protein by Eurofins DiscoverX; T7 phage fusion or DNA tag for qPCR (generic vendor protocol); purchased Eurofins DiscoverX
T1 sequence (Q06187 whole entry, the tested form may be a part): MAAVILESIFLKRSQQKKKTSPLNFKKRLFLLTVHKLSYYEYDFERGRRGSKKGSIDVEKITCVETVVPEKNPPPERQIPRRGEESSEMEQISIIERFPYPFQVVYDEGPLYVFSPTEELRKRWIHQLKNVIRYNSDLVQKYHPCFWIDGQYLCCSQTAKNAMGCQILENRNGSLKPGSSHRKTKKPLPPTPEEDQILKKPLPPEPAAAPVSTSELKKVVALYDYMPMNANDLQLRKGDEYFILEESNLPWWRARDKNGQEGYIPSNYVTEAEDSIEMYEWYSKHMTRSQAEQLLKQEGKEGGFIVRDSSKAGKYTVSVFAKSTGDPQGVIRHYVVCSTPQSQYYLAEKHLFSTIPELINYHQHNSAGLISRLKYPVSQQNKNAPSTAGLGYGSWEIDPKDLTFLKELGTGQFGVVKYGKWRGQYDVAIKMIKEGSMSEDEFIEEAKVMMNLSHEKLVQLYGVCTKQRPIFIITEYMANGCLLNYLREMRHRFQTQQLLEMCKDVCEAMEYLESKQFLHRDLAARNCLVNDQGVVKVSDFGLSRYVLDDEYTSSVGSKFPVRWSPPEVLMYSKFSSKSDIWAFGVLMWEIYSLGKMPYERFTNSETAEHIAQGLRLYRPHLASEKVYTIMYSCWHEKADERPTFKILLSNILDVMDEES
Procedure: The dissociation equilibrium constant Kd was measured using the full-length BTK protein by Eurofins DiscoverX according to the following protocol: kinase-tagged T7 phage strains were prepared in an E. coli host derived from the BL21 strain. E. coli were grown to log-phase and infected with T7 phage and incubated with shaking at 32 °C until lysis. The lysates were centrifuged and filtered to remove cell debris. The remaining kinases were produced in HEK-293 cells and subsequently tagged with DNA for qPCR detection. […] The liganded beads were blocked with excess biotin and washed with blocking buffer (SeaBlock (Pierce), 1% BSA, 0.05% Tween 20, 1 mM DTT) to remove unbound ligand and to reduce non-specific binding. […] Test compounds were prepared as 111X stocks in 100% DMSO. […] The compounds were then diluted directly into the assays such that the final concentration of DMSO was 0.9%. All reactions performed in polypropylene 384-well plate. Each was a final volume of 0.02 mL. […] The kinase concentration in the eluates was measured by qPCR. For kinase-binding constant determination, an 11-point 3-fold serial dilution of each test compound was prepared in 100% DMSO at 100x final test concentration and subsequently diluted to 1x in the assay (final DMSO concentration = 1%). […] Binding constants (Kd values) were calculated with a standard dose-response curve using the Hill equation: Response=Background+Signal−Background/1+KdHillSlope/Dose^HillSlope
The Hill Slope was set to −1. Curves were fitted using a non-linear least square fit with the Levenberg-Marquardt algorithm.

[2] = biological target: T2, BTK-NanoLuc fusion (Homo sapiens, UniProt Q06187); test: NanoBRET BTK in-cell target engagement assay; assay type: cell-based; details: for NanoBRET(%): Figure 3c; for NanoBRET(%) / IC50: triplicates; for IC50: HEK-293 cells, BTK tracer 1.0 µM, Table 1 / Fig. 3c, read-out: BTK TE IC50,TE; for K′P,D (relative intracellular accumulation coefficient): Kd (BTK)/IC50,TE (BTK); for intracellular accumulation of RC-1 relative to the compound: from K′P,D values, BTK (Table 1)
T2 construct: host or cells: HEK 293T/17
T2 sequence (Q06187 whole entry, the tested form may be a part): as above
Procedure: The target engagement assay for BTK or CRBN was from Promega (BTK kit, Cat. No. N2500; CRBN kit, Cat. No. CS1810C136) and was performed according to the manufacture’s instruction with some modifications. Briefly, HEK 293/T17 cells (ATCC) were transiently transfected with BTK-NanoLuc® fusion vector or NanoLuc®-CRBN fusion vector (Promega) in 0.125 M CaCl2 and 1x HBS. Forty-eight hours after transfection, the cells were resuspended in Opti-MEM medium (Life Technologies, Cat. No. 11058021) at the density of 2 × 10^5 cells per mL and were plated into 96-well plates (Corning, Cat. No. CLS3600). Cells were incubated with 1.0 µM (BTK) or 0.5 µM (CRBN) NanoBRET™ Tracer and serially diluted unlabeled BTK PROTAC compounds (from 10 to 0.0032 µM, 5-fold dilution) for 2 h at 37 °С with 5% CO2 in an incubator. After 2 h incubation, the 3X Nano-Glo® Substrate with NanoLuc® extracellular inhibitor were added to cells and developed for 3 min at room temperature. BRET signals were collected using a BioTek SYNERGY H1 microplate reader equipped with a 450/80-nm BP filter for donor emission and a 610-nm LP filter for acceptor emission. BRET Ratio was calculated with the equation: [(Acceptor sample/Donor sample)–(Acceptor no tracer control/Donor no tracer control)] × 1000. The IC50 of the compound against its BTK or CRBN tracer was calculated using GraphPad Prism software.

[3] = biological target: BTK (Homo sapiens, UniProt Q06187); test: In vitro BTK kinase assay (PhosphoSens); assay type: biochemical; design: purchased SignalChem B10-10H-10; details: for IC50: AssayQuant BTK assay kit, 2.5 nM BTK, 1 mM ATP, duplicates, read-out: BTK inhibition IC50; for activity at 2.56 pM: drug concentration 2.56 pM; for activity at 12.8 pM: drug concentration 12.8 pM; for activity at 64 pM: drug concentration 64 pM; for activity at 0.00032 µM: drug concentration 320 pM; for activity at 0.0016 µM: drug concentration 1600 pM; for activity at 0.008 µM: drug concentration 8000 pM; for activity at 0.2 µM: drug concentration 200000 pM; for activity at 1 µM: drug concentration 1000000 pM; for diminished BTK inhibitory activity compared with corresponding warhead control: ratio of IC50 values
BTK, sequence (Q06187 whole entry): as the sequence (Q06187 whole entry, the tested form may be a part) above
Procedure: BTK kinase activity inhibition IC50 was measured by PhosphoSens® Kinase Assay Kit (Assay Quant Technologies Inc., Cat.# CSKS-AQT0101K). […] Active recombinant BTK was purchased from SignalChem (Cat.# B10-10H-10). All the drugs (3 warhead control and 4 PROTACs) were dissolved in DMSO (10 mM). […] To calculate the IC50, subtract the background fluorescence determined with the “no kinase” control for each time point from the total signal to obtain corrected Relative Fluorescence Units (RFU) values. Plot the corrected RFU vs. Time for each inhibitor concentration and determine the initial reaction rates (slope of the linear portion) for each progress curve for each inhibitor concentration. Then plot velocity (RFU corrected/minute) vs [inhibitor] and determine the IC50 using a 4-parameter logistic fit.

[4] = BTK_-DTT, compound concentration 0.137 nM
[5] = Supplementary Figure 5, replicates, read-out: Inhibition(%)

CN(CC=CC(=O)N1CCCC(n2nc(-c3ccc(Oc4ccccc4)cc3)c3c(N)ncnc32)C1)CCCNC(=O)CNc1cccc2c1C(=O)N(C1CCC(=O)NC1=O)C2=O (stereo not drawn) [IRC-1]
Signal ([1]; BTK_+DTT, compound concentration 0.00491 nM): 2.11E-05 and 2.14E-05
Signal ([1]; BTK_+DTT, compound concentration 0.0147 nM): 1.62E-05 and 1.97E-05
Signal ([1]; BTK_+DTT, compound concentration 0.0442 nM): 2.15E-05 and 2.03E-05
Signal ([1]; BTK_+DTT, compound concentration 0.133 nM): 2.11E-05 and 2.33E-05
Signal ([1]; BTK_+DTT, compound concentration 0.398 nM): 1.86E-05 and 1.95E-05
Signal ([1]; BTK_+DTT, compound concentration 1.19 nM): 1.43E-05 and 1.52E-05
Signal ([1]; BTK_+DTT, compound concentration 3.58 nM): 1.06E-05 and 1.08E-05
Signal ([1]; BTK_+DTT, compound concentration 10.7 nM): 5.42E-06 and 5.34E-06
Signal ([1]; BTK_+DTT, compound concentration 32.2 nM): 1.75E-06 and 1.73E-06
Signal ([1]; BTK_+DTT, compound concentration 96.7 nM): 3.47E-07 and 3.72E-07
Signal ([1]; BTK_+DTT, compound concentration 290 nM): 8.87E-08 and 9.98E-08
Signal ([1]; BTK_-DTT, compound concentration 0.0152 nM): 1.52E-05 and 1.19E-05
Signal ([1]; BTK_-DTT, compound concentration 0.0457 nM): 1.62E-05 and 1.68E-05
Signal [1, 4]: 1.78E-05 and 1.76E-05
Signal ([1]; BTK_-DTT, compound concentration 0.412 nM): 1.29E-05 and 1.60E-05
Signal ([1]; BTK_-DTT, compound concentration 1.23 nM): 1.07E-05 and 1.11E-05
Signal ([1]; BTK_-DTT, compound concentration 3.7 nM): 7.15E-06 and 6.34E-06
Signal ([1]; BTK_-DTT, compound concentration 11.1 nM): 3.52E-06 and 2.70E-06
Signal ([1]; BTK_-DTT, compound concentration 33.3 nM): 1.15E-06
Signal ([1]; BTK_-DTT, compound concentration 100 nM): 3.02E-07 and 3.08E-07
Signal ([1]; BTK_-DTT, compound concentration 300 nM): 1.03E-07 and 9.31E-08
Kd ([1]; absence of DTT in the buffer): 3 nM
NanoBRET(%) ([2]; 1.00E-05 M): 10.4557% and 9.057% and 9.053%
NanoBRET(%) ([2]; 1.60E-08 M): 96.913% and 93.9025% and 100.93%
NanoBRET(%) ([2]; 2.00E-06 M): 7.89% and 9.51% and 9.23%
NanoBRET(%) ([2]; 3.20E-09 M): 94.8058% and 107.984% and 103.91%
NanoBRET(%) ([2]; 4.00E-07 M): 11.1403% and 9.255% and 17.6554%
NanoBRET(%) ([2]; 8.00E-08 M): 65.3589% and 58.7338% and 70.2106%
IC50 [2]: 130 nM
K′P,D (relative intracellular accumulation coefficient) [2]: 2.3 × 10^−2
BTK engagement ([2]; at 400 nM): ~ 100%
intracellular accumulation of RC-1 relative to the compound [2]: 6 folds
IC50 [3]: 0.8 nM
activity at 2.56 pM [3, 5]: 86.2%
activity at 12.8 pM [3, 5]: 77.7%
activity at 64 pM [3, 5]: 78.1%
activity at 0.00032 µM [3, 5]: 65.7%
activity at 0.0016 µM [3, 5]: 28%
activity at 0.008 µM [3, 5]: 4.02%
activity at 0.2 µM [3, 5]: 0.667%
activity at 1 µM [3, 5]: 2.16%
diminished BTK inhibitory activity compared with corresponding warhead control [3]: < 3 fold

CN(CCCNC(=O)CNc1cccc2c1C(=O)N(C1CCC(=O)NC1=O)C2=O)CCCC(=O)N1CCCC(n2nc(-c3ccc(Oc4ccccc4)cc3)c3c(N)ncnc32)C1 (stereo not drawn) [RNC-1]
Signal ([1]; BTK_+DTT, compound concentration 0.0457 nM): 1.67E-05 and 2.04E-05
Signal ([1]; BTK_+DTT, compound concentration 0.137 nM): 2.07E-05
Signal ([1]; BTK_+DTT, compound concentration 0.412 nM): 1.78E-05 and 1.97E-05
Signal ([1]; BTK_+DTT, compound concentration 1.23 nM): 1.66E-05 and 1.94E-05
Signal ([1]; BTK_+DTT, compound concentration 3.7 nM): 9.43E-06 and 1.17E-05
Signal ([1]; BTK_+DTT, compound concentration 11.1 nM): 5.40E-06 and 5.82E-06
Signal ([1]; BTK_+DTT, compound concentration 33.3 nM): 1.59E-06 and 1.81E-06
Signal ([1]; BTK_+DTT, compound concentration 100 nM): 4.37E-07 and 5.02E-07
Signal ([1]; BTK_+DTT, compound concentration 300 nM): 2.01E-07 and 2.30E-07
Signal ([1]; BTK_+DTT, compound concentration 900 nM): 1.47E-07 and 2.72E-07
Signal ([1]; BTK_+DTT, compound concentration 2700 nM): 1.45E-07 and 2.02E-07
Signal [1, 4]: 2.06E-05
Kd ([1]; standard assay buffer in the presence of DTT (6 mM) (DiMe compounds: BTK_+DTT per Supplementary Data 1)): 4.7 nM
NanoBRET(%) ([2]; 1.00E-05 M): 19.811% and 15.5465% and 15.3581%
NanoBRET(%) ([2]; 1.60E-08 M): 97.712% and 94.5586% and 94.4887%
NanoBRET(%) ([2]; 2.00E-06 M): 33.1128% and 33.4469% and 31.5012%
NanoBRET(%) ([2]; 3.20E-09 M): 87.6339% and 98.6398% and 114.053%
NanoBRET(%) ([2]; 4.00E-07 M): 69.4314% and 86.9635% and 77.822%
NanoBRET(%) ([2]; 8.00E-08 M): 100.734% and 107.362% and 104.968%
IC50 [2]: 1270 nM
K′P,D (relative intracellular accumulation coefficient) [2]: 3.7 × 10^−3
intracellular accumulation of RC-1 relative to the compound [2]: 40 folds
IC50 [3]: 21.2 nM
activity at 2.56 pM [3, 5]: 87.5%
activity at 12.8 pM [3, 5]: 93%
activity at 64 pM [3, 5]: 88%
activity at 0.00032 µM [3, 5]: 96.2%
activity at 0.0016 µM [3, 5]: 83.6%
activity at 0.008 µM [3, 5]: 71.7%
activity at 0.04 µM ([3]; Supplementary Figure 5, drug concentration 40000 pM, replicates, read-out: Inhibition(%)): 32.2%
activity at 0.2 µM [3, 5]: 14%
activity at 1 µM [3, 5]: 4.94%
diminished BTK inhibitory activity compared with corresponding warhead control [3]: < 3 fold
